According to the supplement of paper PMC8612539:
Converted amounts (≈) assume the structure as drawn.

System: Escherichia coli
Assay: minimum inhibitory concentration (MIC)
Description: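 Broth microdilution MIC (Sensititre BOPO7F bovine plate, CLSI methods) of 19 antimicrobials against field isolates of P. multocida, M. haemolytica, H. somni (deep nasopharyngeal swabs) and E. coli, Enterococcus spp. (rectal swabs) from weaned dairy heifers. Incubation 16-24 h at 35 C. MIC is the lowest concentration preventing visible growth. Values with <= or > lie at the tested range limits. Trimethoprim-sulfamethoxazole is given as the trimethoprim component of a 1:19 mixture.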

CCCNC[C@]1(O)[C@H](C)O[C@@H](O[C@H]2[C@H](C)[C@@H](O[C@@H]3O[C@H](C)C[C@H](N(C)C)[C@H]3O)[C@](C)(O)C[C@@H](C)CN[C@H](C)[C@@H](O)[C@](C)(O)[C@@H](CC)OC(=O)[C@@H]2C)C[C@@]1(C)OC [Tulathromycin]
Details | minimum inhibitory concentration [µg/mL]
isolate (source animal id): 8 | ≤ 8
isolate (source animal id): 9 | 16 (≈ 19.8 µM)
isolate (source animal id): 10 | 16 (≈ 19.8 µM)
isolate (source animal id): 11 | ≤ 8
isolate (source animal id): 12 | ≤ 8
isolate (source animal id): 13 | ≤ 8
isolate (source animal id): 14 | ≤ 8
isolate (source animal id): 15 | ≤ 8
isolate (source animal id): 16 | ≤ 8
isolate (source animal id): 98 | ≤ 8
isolate (source animal id): 99 | ≤ 8
isolate (source animal id): 100 | ≤ 8
isolate (source animal id): 101 | ≤ 8
isolate (source animal id): 102 | ≤ 8
isolate (source animal id): 103 | ≤ 8
isolate (source animal id): 104 | 16 (≈ 19.8 µM)
isolate (source animal id): 105 | ≤ 8
isolate (source animal id): 106 | 16 (≈ 19.8 µM)
isolate (source animal id): 107 | 16 (≈ 19.8 µM)
isolate (source animal id): 108 | 16 (≈ 19.8 µM)
isolate (source animal id): 109 | ≤ 8
isolate (source animal id): 110 | ≤ 8
isolate (source animal id): 111 | ≤ 8
isolate (source animal id): 112 | ≤ 8
isolate (source animal id): 113 | ≤ 8
isolate (source animal id): 114 | ≤ 8
isolate (source animal id): 115 | 64 (≈ 79.4 µM)
isolate (source animal id): 116 | ≤ 8
isolate (source animal id): 117 | 16 (≈ 19.8 µM)
isolate (source animal id): 118 | ≤ 8
isolate (source animal id): 119 | 32 (≈ 39.7 µM)
isolate (source animal id): 120 | ≤ 8
isolate (source animal id): 121 | ≤ 8
isolate (source animal id): 122 | ≤ 8
isolate (source animal id): 123 | ≤ 8
isolate (source animal id): 124 | 16 (≈ 19.8 µM)
isolate (source animal id): 125 | ≤ 8
isolate (source animal id): 126 | 16 (≈ 19.8 µM)
isolate (source animal id): 127 | 16 (≈ 19.8 µM)
isolate (source animal id): 128 | ≤ 8
isolate (source animal id): 129 | ≤ 8
isolate (source animal id): 130 | ≤ 8
isolate (source animal id): 131 | ≤ 8
isolate (source animal id): 132 | ≤ 8
isolate (source animal id): 133 | ≤ 8
isolate (source animal id): 134 | ≤ 8
isolate (source animal id): 135 | ≤ 8
isolate (source animal id): 136 | ≤ 8
isolate (source animal id): 137 | ≤ 8
isolate (source animal id): 138 | 32 (≈ 39.7 µM)
isolate (source animal id): 139 | ≤ 8
isolate (source animal id): 140 | ≤ 8
isolate (source animal id): 141 | ≤ 8
isolate (source animal id): 142 | ≤ 8
isolate (source animal id): 143 | 16 (≈ 19.8 µM)
isolate (source animal id): 144 | 16 (≈ 19.8 µM)
isolate (source animal id): 145 | 16 (≈ 19.8 µM)
isolate (source animal id): 146 | 16 (≈ 19.8 µM)
isolate (source animal id): 147 | ≤ 8
isolate (source animal id): 148 | ≤ 8
isolate (source animal id): 149 | ≤ 8
isolate (source animal id): 150 | ≤ 8
isolate (source animal id): 151 | ≤ 8
isolate (source animal id): 152 | ≤ 8
isolate (source animal id): 153 | ≤ 8
isolate (source animal id): 154 | ≤ 8
isolate (source animal id): 155 | ≤ 8
isolate (source animal id): 156 | ≤ 8
isolate (source animal id): 157 | ≤ 8
isolate (source animal id): 158 | ≤ 8
isolate (source animal id): 159 | ≤ 8
isolate (source animal id): 160 | ≤ 8
isolate (source animal id): 161 | ≤ 8
isolate (source animal id): 162 | ≤ 8
isolate (source animal id): 163 | 16 (≈ 19.8 µM)
isolate (source animal id): 164 | ≤ 8
isolate (source animal id): 165 | ≤ 8
isolate (source animal id): 166 | ≤ 8
isolate (source animal id): 167 | 16 (≈ 19.8 µM)
isolate (source animal id): 168 | ≤ 8
isolate (source animal id): 169 | ≤ 8
isolate (source animal id): 170 | ≤ 8
isolate (source animal id): 171 | ≤ 8
isolate (source animal id): 172 | ≤ 8
isolate (source animal id): 173 | ≤ 8
isolate (source animal id): 174 | ≤ 8
isolate (source animal id): 175 | 16 (≈ 19.8 µM)
isolate (source animal id): 176 | ≤ 8
isolate (source animal id): 177 | ≤ 8
isolate (source animal id): 178 | ≤ 8
isolate (source animal id): 179 | ≤ 8
isolate (source animal id): 180 | ≤ 8
isolate (source animal id): 181 | ≤ 8
isolate (source animal id): 182 | 16 (≈ 19.8 µM)
isolate (source animal id): 183 | ≤ 8
isolate (source animal id): 184 | ≤ 8
isolate (source animal id): 185 | 16 (≈ 19.8 µM)
isolate (source animal id): 186 | ≤ 8
isolate (source animal id): 187 | ≤ 8
isolate (source animal id): 188 | ≤ 8
